These results are taken from ChEMBL document CHEMBL5136989, “A review on the treatment of multiple myeloma with small molecular agents in the past five years” (Eur J Med Chem, 2022).

Molecules are shown by their SMILES. pIC50: −log10 of the molar value.

One may read the pIC50 as −log10 of the IC50, conventionally taken in molar units. Low readings indicate a large IC50, high ones a small IC50.

Assay [1] relates to Proteasome. The assay can be described thus: Inhibition of proteasome (unknown origin). Type of assay: subcellular, Homo sapiens.
The nature of assay [2]: Cytotoxicity against human multiple myeloma cells by WST-1 assay. The conditions noted are these: Multiple myeloma cell. Type of assay: functional, cell-based.
A short description of assay [3]: Induction of mitotic arrest in human multiple myeloma cells. The conditions noted are these: multiple myeloma cell. Type of assay: functional, cell-based.
Assay [4] in a line: Immunomodulatory activity in human MM cells. Type of assay: functional, cell-based. The conditions noted are these: multiple myeloma cell.
Assay [5] deals with Multiple myeloma cancer stem cell. Briefly: Cytotoxicity against human Myeloma-stem like cells. Type of assay: functional, cell-based.
The nature of assay [6]: Anticancer activity in human multiple myeloma cells. The conditions noted are these: Multiple myeloma cell. It counts as functional, cell-based.

On to `CC(C)C[C@H](NC(=O)[C@H](CCc1ccccc1)NC(=O)CN1CCOCC1)C(=O)N[C@@H](Cc1ccccc1)C(=O)N[C@@H](CC(C)C)C(=O)[C@@]1(C)CO1` [CARFILZOMIB], for which the pIC50 in assay [1] is 7.48. `CCc1c(-c2ccc(C(=O)NC)nc2)cnc(N)c1-c1ccc(O)cc1` showed a pIC50 in assay [2] of 5.87.

Take `Cc1ccc(CN(CC(O)COc2cccc3[nH]ccc23)C(C)(C)C)cc1` (stereo not drawn): the pIC50 in assay [3] is 4.55.

With `CN(C)CCC(CSc1ccccc1)Nc1ccc(S(=O)(=O)NC(=O)c2ccc(N3CCN(Cc4ccccc4-c4ccc(Cl)cc4)CC3)cc2)cc1[N+](=O)[O-]` (stereo not drawn), the pIC50 in assay [2] is over 6.30. For the molecule `O=[N+]([O-])c1ccc(O)c2ncccc12` [NITROXOLINE], the negative logarithm of the IC50 (pIC50) in assay [3] is 5.28. The molecule `CCCSc1nc(NCCN)c2nnn(Cc3ccc(Cl)cc3)c2n1` had a pIC50 in assay [2] of 5.96. `CS(=O)(=O)N1CCN(C(=S)Nc2ccc([N+](=O)[O-])cc2)CC1` had a pIC50 in assay [2] of 4.47.

Turning to `CCc1c(-c2ccc3[nH]ncc3c2)cnc(N)c1-c1ccc(O)cc1`, the pIC50 in assay [2] was 6.12. In the case of `Cc1ccc(NC(=O)NCc2ccc3c(c2)CN(C2CCC(=O)NC2=O)C3=O)cc1Cl` (stereo not drawn), the pIC50 in assay [4] was 9.52. In assay [3], `CN(C)c1ccccc1CN1CCCN(Cc2ccccc2N(C)C)C1c1ccncc1` had a negative logarithm of the IC50 (pIC50) of 5.30. In turn, `CN(CCCNC(=O)c1ccc2nc3c(c(Cl)c2c1)CCCC3)Cc1ccccc1` showed a negative logarithm of the IC50 (pIC50) in assay [2] of 4.55.

The molecule `NS(=O)(=O)OC[C@@H]1C[C@@H](n2ccc3c(N[C@H]4CCc5ccccc54)ncnc32)C[C@@H]1O` [PEVONEDISTAT] had a pIC50 in assay [1] of 8.40. In assay [2], `CCCC(NC(=O)/C(C#N)=C/c1cccc(Br)n1)c1ccccc1` (stereo not drawn) gave a pIC50 of 5.80. Regarding `C=CC(=O)N1CC/C(=C\c2ccc(F)c([N+](=O)[O-])c2)C(=O)/C(=C/c2ccc(F)c([N+](=O)[O-])c2)C1`, the pIC50 in assay [2] is 7.37. In assay [2], `CCN(CCCNC(=O)c1ccc2nc3c(c(Cl)c2c1)CCCC3)Cc1ccccc1` showed a pIC50 of 4.65. Turning to `CC(C)C[C@H](NC(=O)CNC(=O)c1cc(Cl)ccc1Cl)B(O)O` [IXAZOMIB], in assay [1], the pIC50 was 8.30.

Take `CC(NC(=O)/C(C#N)=C/c1cccc(/C=C(\C#N)C(=O)NC(C)c2ccccc2)c1)c1ccccc1` (stereo not drawn): in assay [2], the pIC50 is 6.40. On the same count and under the same terms, under `O=C(CBr)N1CC([N+](=O)[O-])([N+](=O)[O-])C1` [NIBROZETONE] stands 5.90.

In assay [1], `CC[C@H](C)[C@H](NC(=O)[C@H]([C@@H](C)CC)N(C)C(C)=O)C(=O)N[C@H](C(=O)N[C@@H](CC(C)C)C(=O)[C@@]1(C)CO1)[C@@H](C)O` [EPOXOMYCIN] showed a pIC50 of 6.58. In assay [4], `O=C1CC[C@H](N2Cc3c(OCc4ccc(CN5CCOCC5)cc4)cccc3C2=O)C(=O)N1` [IBERDOMIDE] showed a negative logarithm of the IC50 (pIC50) of 7.89.

As for `N#C/C(=C/c1cccc(Br)n1)C(=O)NCc1cccc(CNC(=O)/C(C#N)=C\c2cccc(Br)n2)c1`, the pIC50 in assay [2] was 6.62. In turn, `C=CCn1c(=O)c2cnc(Nc3ccc(N4CCN(C)CC4)cc3)nc2n1-c1cccc(C(C)(C)O)n1` [ADAVOSERTIB] gave a pIC50 in assay [5] of 6.51. Regarding `CC(=O)N[C@@H](CCc1ccccc1)C(=O)N[C@@H](CC(C)C)C(=O)N[C@@H](Cc1ccccc1)C(=O)N[C@@H](CC(C)C)C(=O)[C@]1(C)CO1`, the pIC50 in assay [1] was 6.59. `c1cc(CN2CCCNCCNCCCNCC2)ccc1CN1CCCNCCNCCCNCC1` [PLERIXAFOR] had a negative-log IC50 (pIC50) in assay [3] of 7.57. With `O=C1CCC(N2C(=O)c3ccccc3C2=O)C(=O)N1` (stereo not drawn) [THALIDOMIDE], the pIC50 in assay [4] is 3.71.

As to `CON(C)C(=O)N1N=C(c2cc(F)ccc2F)S[C@@]1(CCCN)c1ccccc1` [FILANESIB], the pIC50 in assay [3] is 8.21.

`CC(=O)c1cc([N+](=O)[O-])c(Sc2cccc(Cl)c2Cl)s1`: in assay [2], the pIC50 is 5.22. In assay [4], `Nc1cccc2c1CN(C1CCC(=O)NC1=O)C2=O` (stereo not drawn) [LENALIDOMIDE] showed a pIC50 of 7.09. Molecule `Nc1cccc2c1C(=O)N(C1CCC(=O)NC1=O)C2=O` (stereo not drawn) [POMALIDOMIDE] gave a pIC50 in assay [4] of 7.46. Regarding `CC1(C)CCC(CN2CCN(c3ccc(C(=O)NS(=O)(=O)c4ccc(NCC5CCOCC5)c([N+](=O)[O-])c4)c(Oc4cnc5[nH]ccc5c4)c3)CC2)=C(c2ccc(Cl)cc2)C1` [VENETOCLAX], the pIC50 in assay [6] is 7.57.

Take `O=C(/C=C\n1cnc(-c2cc(C(F)(F)F)cc(C(F)(F)F)c2)n1)NNc1cnccn1` [SELINEXOR]: the negative logarithm of the IC50 (pIC50) in assay [6] was 7.36. In turn, `O=C1c2ccccc2C(=O)c2oc(-c3cccnc3)nc21` had a pIC50 in assay [2] of 7.00.

In turn, `CC(C)C[C@H](NC(=O)[C@H](Cc1ccccc1)NC(=O)c1cnccn1)B(O)O` [BORTEZOMIB] gave a pIC50 in assay [1] of […].
